Among the data in PubChem BioAssay (NCI) are GI50 and TGI values, retold here.

For orientation: GI50 means the concentration that inhibits growth by half. Broadly, the TGI is the concentration at which net growth stops. A low value points to greater sensitivity of the cells.

Common to all, as to assay: DTP human tumour cell line panel, 48 h
For assay [1], the system named is A498 renal.
In assay [2] the test system is MALME-3M melanoma.
The test system of assay [3] is HL-60(TB) leukemia.
The subject of assay [4] is SK-MEL-28 melanoma.
The subject of assay [5] is OVCAR-3 ovarian.
The test system of assay [6] is KM12 colon.
Assay [7] has as its system UACC-62 melanoma.
Assay [8] concerns NCI-H23 lung.
The test system of assay [9] is EKVX NSCLC.
Assay [10] deals with HCT-116 colon.

“And” between values parts separate entries of the source, which are not always exact repeats. Identical values can stand only once.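 The compound was tested at five concentrations on cells cultured in 96-well plates, with a 48-hour exposure period. The concentration for 50% growth inhibition is given as GI50. TGI is the concentration that stops growth completely.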

`C=C1C(=O)[C@@]23CC1C(O)[C@@H](OC(C)=O)[C@@H]2C1(C)C(OC(C)=O)C[C@@H](OC(C)=O)C(C)(C)[C@@H]1C[C@H]3OC(C)=O` (stereo not given in full): the GI50 is 16.3 µg/mL in [1]; 1.57 µM and 1.72 µg/mL in assay [2]; 1.89 µM and 0.529 µg/mL in assay [3]; 6.69 µM and 1.67 µg/mL in [4]; > 10 µM and 3.93 µg/mL in assay [5]; > 10 µM and 5.94 µg/mL in [6]. The GI50 was 1.77 µg/mL in [7]; 7.86 µM and 2.63 µg/mL in [8]; > 10 µM and 16.8 µg/mL in assay [9]; 1.45 µM and 1.46 µg/mL in assay [10]. For the same molecule, the TGI was > 10 µM and 30.6 µg/mL in [1]; 3.3 µM and 3.14 µg/mL in [2]; 3.67 µM and 3 µg/mL in [3]; > 10 µM and 3.46 µg/mL in [4]; > 10 µM and 8.34 µg/mL in [5]; > 10 µM and 17.1 µg/mL in [6]. The concentration for total growth inhibition (TGI) in assay [7] was 3.53 µg/mL; in [8] it was > 10 µM and 7.68 µg/mL; in [9], > 10 µM and 35.6 µg/mL; in assay [10], 2.98 µM and 2.89 µg/mL.
Regarding `NC(=N\N=C/c1cccc([N+](=O)[O-])c1)/C(N)=N\N=C/c1cccc([N+](=O)[O-])c1`, the GI50 in assay [1], in [2], in assay [3], in assay [4], in assay [5] and in [6] was over 100 µM throughout. Also, the GI50 in assay [7], in assay [8], in [9] and in [10] was over 100 µM in each case. The concentration for total growth inhibition (TGI) in assay [1], in [2], in [3], in assay [4], in [5] and in assay [6] was over 100 µM throughout. Moreover, the total growth inhibition concentration (TGI) in assay [7], in [8], in [9] and in assay [10] was over 100 µM each time.
`CCc1nc(N)nc(C(=O)NCCNC(=O)c2nc(N)nc(CC)c2C)c1C`: the TGI in assay [1], in [2], in assay [3], in assay [4], in [5] and in [6] was over 100 µM in each case. Also, the concentration for total growth inhibition (TGI) in [7], in [8], in [9] and in assay [10] was over 100 µM each time.
For the molecule `Cc1occc1C(=S)Nc1ccc(Cl)c(/C=N/OC(C)C)c1`, the total growth inhibition concentration (TGI) was 49.9 µM in assay [1]; over 57.4 µM in assay [2]; 69.8 µM in assay [3]; over 56.4 µM in [4]; 30.9 µM in assay [5]; 53.6 µM in assay [6]. Also, the TGI was 29.2 µM in assay [7], 52.3 µM in [8], 59 µM in assay [9] and over 51.7 µM in assay [10].
For `O=C([CH-]C(=O)c1ccccc1)c1ccccc1.O=C([CH-]C(=O)c1ccccc1)c1ccccc1.O=C([CH-]C(=O)c1ccccc1)c1ccccc1.[OH3+].[Y+3]`, the GI50 in assay [1] was 16.3 µM; in assay [2], 14 µM; in assay [3], 2.4 µM; in assay [4], 10.8 µM; in [5] it was 5 µM; in assay [6], 5.38 µM. The GI50 in assay [7] is 5.73 µM; in [8], 3.51 µM; in assay [9], 3.32 µM; in assay [10] it was 4.18 µM. For the same molecule, the total growth inhibition concentration (TGI) in assay [1] was determined as 43.1 µM; in assay [2], 47.2 µM; in assay [3], 11.5 µM; in assay [4] it was 40.2 µM; in [5], 17.3 µM; in [6], 24 µM. Further, the TGI in [7] turned out to be 22.3 µM; in assay [8] it was 18.9 µM; in assay [9], 23.1 µM; in assay [10], 18.3 µM.
Turning to `O=C(Nc1ccc(F)cc1F)c1cc(Br)ccc1O`, the GI50 in [1] was 1.07 µM; in assay [2], 1.85 µM; in [3] it was 2.44 µM; in assay [4], 1.43 µM; in assay [5] it was 2.89 µM; in [6] it was 2.99 µM. In addition, the GI50 was 1.23 µM in [7], 2.43 µM in assay [8], 2.23 µM in assay [9] and 2.47 µM in assay [10]. In addition, the TGI is 2.75 µM in assay [1]; 5.75 µM in [2]; 7.17 µM in assay [3]; 6.24 µM in [4]; over 100 µM in assay [5]; 10.1 µM in [6]. Also, the concentration for total growth inhibition (TGI) in [7] turned out to be 3.82 µM; in assay [8] it was 9.21 µM; in assay [9], 9.73 µM; in [10], 8.45 µM.
